Results as given in article PMC7281072 (Cancers, 2020).
Where two headings read alike, the source gives them in different places.

What was measured:
[1] = tested on: AKT1,2 phosphorylation; test: AKT phosphorylation ELISA, UWB1.289+BRCA1 cells; type: cell-based, human; settings: Homo sapiens, 1 h, 60 min, read-out: IC50, pAKT 1/2 inhibition
[2] = tested on: ERK1,2 phosphorylation; test: ERK1/2 phosphorylation ELISA, OVCAR-3 cells; type: cell-based, human; settings: for Vmax ± SE, pERK 1/2 inhibition: Michaelis Menten model; for IC50: Homo sapiens, read-out: IC50, pERK 1/2 inhibition
[3] = tested on: AKT1,2 phosphorylation; test: AKT phosphorylation ELISA, OVCAR-5 cells; type: cell-based, human; settings: for Vmax ± SE, pAKT 1/2 inhibition: Michaelis Menten model; for IC50: Homo sapiens, read-out: IC50, pAKT 1/2 inhibition
[4] = tested on: UWB1.289+BRCA1 cancer cell line; test: cells; settings: Homo sapiens, 48 h
[5] = tested on: OVCAR-3 cancer cell line
[6] = tested on: UWB1.289 cancer cell line
[7] = tested on: UWB1.289 cancer cell line; test: cells; settings: Homo sapiens, UWB1289, 48 h
[8] = tested on: AKT1,2 phosphorylation; test: AKT phosphorylation ELISA, SK-OV-3 cells; type: cell-based, human; settings: for Vmax ± SE, pAKT 1/2 inhibition: Michaelis Menten model; for IC50: Homo sapiens, read-out: IC50, pAKT 1/2 inhibition
[9] = tested on: AKT1,2 phosphorylation; test: AKT phosphorylation ELISA, UWB1.289 cells; type: cell-based, human; settings: for Vmax ± SE, pAKT 1/2 inhibition: Michaelis Menten model; for IC50: Homo sapiens, read-out: IC50, pAKT 1/2 inhibition
[10] = tested on: CB17 SCID mice; settings: both, mouse, in vivo, ip
[11] = tested on: OVCAR-5 human ovarian adenocarcinoma xenograft; design: species or system CB17 SCID mice; settings: mouse, in vivo
[12] = tested on: pAKT; test: Western immunoblotting densitometry, pAKT, SKOV-3 cells; type: cell-based, human; settings: 25 μM; for ratio [pAKT]/[GAPDH] band intensity: SKOV-3 cells; for ratio [pAKT]/[GAPDH] band intensity, single blot (panel A): panel A lower set, cell line not given, control ratio 0.996
[13] = tested on: OVCAR-5 cancer cell line
[14] = tested on: pERK1,2; test: Western immunoblotting densitometry, pERK1,2, SKOV-3 cells; type: cell-based, human; settings: 25 μM; for ratio [pERK1+pERK2]/[GAPDH] band intensity: SKOV-3 cells; for ratio [pERK1+pERK2]/[GAPDH] band intensity, single blot (panel A): panel A lower set, cell line not given
[15] = read-out: GI50 (50% Growth Inhibition)
[16] = read-out: IC50 (cytotoxic effect)

C[C@]12CC[C@@H]3c4ccc(OC(=O)CCOc5ccc(N(CCCl)CCCl)cc5)cc4CC[C@H]3[C@@H]1CCC(=O)N2 [ENGA-L08E, 12a-methyl-2-oxo-1,2,3,4,4a,4b,5,6,10b,11,12,12a-dodecahydronaphtho[2,1-f]quinolin-8-yl 3-(4-(bis (2-chloroethyl)amino)phenoxy) propanoate]
IC50 [1]: 19.4 µM | Vmax ± SE, pERK 1/2 inhibition ([2]; 15 min): 56.77 ± 0.49 | Vmax ± SE, pERK 1/2 inhibition ([2]; 30 min): 61.29 ± 1.88 | Vmax ± SE, pERK 1/2 inhibition ([2]; 60 min): 63.79 ± 1.33 | IC50 ([2]; 0.25 h, 15 min): 48.9 µM | IC50 ([2]; 0.5 h, 30 min): 17.8 µM | IC50 ([2]; 1 h, 60 min): 9.51 µM | Vmax ± SE, pAKT 1/2 inhibition ([3]; 15 min): 60.45 ± 3.65 | Vmax ± SE, pAKT 1/2 inhibition ([3]; 30 min): 61.17 ± 0.62 | Vmax ± SE, pAKT 1/2 inhibition ([3]; 60 min): 61.47 ± 2.03 | IC50 ([3]; 0.25 h, 15 min): > 50 µM | IC50 ([3]; 0.5 h, 30 min): 34.2 µM | IC50 ([3]; 1 h, 60 min): 28.3 µM | GI50 [4, 15]: 18 ± 1 µM | IC50 [4, 16]: 88 ± 8.1 µM | TGI (Total Growth Inhibition) [5]: 40 ± 2.7 μΜ | TGI (Total Growth Inhibition) [6]: 20 ± 1.5 μΜ | GI50 [7, 15]: 8 ± 0.9 µM | IC50 [7, 16]: 45 ± 3.3 µM | Vmax ± SE, pAKT 1/2 inhibition ([8]; 15 min): 79.22 ± 0.89 | Vmax ± SE, pAKT 1/2 inhibition ([8]; 30 min): 81.78 ± 2.53 | Vmax ± SE, pAKT 1/2 inhibition ([8]; 60 min): 82.20 ± 1.68 | IC50 ([8]; 0.25 h, 15 min): 29.6 µM | IC50 ([8]; 0.5 h, 30 min): 24.9 µM | IC50 ([8]; 1 h, 60 min): 21.8 µM | Vmax ± SE, pAKT 1/2 inhibition ([9]; 15 min): 63.02 ± 1.33 | Vmax ± SE, pAKT 1/2 inhibition ([9]; 30 min): 68.23 ± 0.99 | Vmax ± SE, pAKT 1/2 inhibition ([9]; 60 min): 70.28 ± 2.75 | IC50 ([9]; UWB1289, 0.25 h, 15 min): 14.1 µM | IC50 ([9]; UWB1289, 0.5 h, 30 min): 8.24 µM | IC50 ([9]; UWB1289, 1 h, 60 min): 6.6 µM | LD10 [10]: 75 mg/kg | Median Overall Survival (OS) [11]: 127 days | Progression Free Survival (PFS) [11]: 34 days | Response Rate (RR) [11]: 100% | Cures (mice alive for 120 days after tumor inoculation) ([11]; ip): 3/5 | MST (mean survival time) ([11]; ip): 94.8 ± 6.3 p < 0.01 Days | T/C% (mean survival time of treated versus saline controls) ([11]; ip): 187.8% | TI% (Tumor Inhibition) ([11]; ip): 131.0% | size of the primary tumor ([11]; ip): 113 ± 14 mm^3 | ratio [pAKT]/[GAPDH] band intensity ([12]; 15min, control ratio 0.98): 1.04 | ratio [pAKT]/[GAPDH] band intensity ([12]; 30min, control ratio 0.98): 0.66 | ratio [pAKT]/[GAPDH] band intensity ([12]; 1h, control ratio 1.02): 0.63 | ratio [pAKT]/[GAPDH] band intensity ([12]; 3h, control ratio 0.99): 0.52 | ratio [pAKT]/[GAPDH] band intensity ([12]; 12h, control ratio 0.94): 0.50 | ratio [pAKT]/[GAPDH] band intensity, single blot (panel A) ([12]; 1h): 0.22 | ratio [pAKT]/[GAPDH] band intensity, single blot (panel A) ([12]; 3h): 0.20 | TGI (Total Growth Inhibition) [13]: 60 ± 2.7 μΜ | ratio [pERK1+pERK2]/[GAPDH] band intensity ([14]; 15min, control ratio 1.70): 1.89 | ratio [pERK1+pERK2]/[GAPDH] band intensity ([14]; 30min, control ratio 1.70): 1.61 | ratio [pERK1+pERK2]/[GAPDH] band intensity ([14]; 1h, control ratio 1.78): 1.08 | ratio [pERK1+pERK2]/[GAPDH] band intensity ([14]; 3h, control ratio 1.74): 0.89 | ratio [pERK1+pERK2]/[GAPDH] band intensity ([14]; 12h, control ratio 1.61): 0.85 | ratio [pERK1+pERK2]/[GAPDH] band intensity, single blot (panel A) ([14]; 1h, control ratio 1.78): 0.54 | ratio [pERK1+pERK2]/[GAPDH] band intensity, single blot (panel A) ([14]; 3h, control ratio 1.78): 0.49
